We go through 2 compounds from ChEMBL document CHEMBL3045512, “Synthesis of some novel triazoloquinazolines and triazinoquinazolines and their evaluation for anti-inflammatory activity” (Med Chem Res, 2012).

Data set [1] relates to Mus musculus. Description: Toxicity in Mus musculus albino (mouse) assessed as bluish toe at 80 to 375 mg/kg, ip. Type of data set: organism-based. Set-up: dose 80-375 mg/kg, route intraperitoneal. The note with it: in vivo.
Data set [2] concerns Mus musculus. Description: Anti-inflammatory activity in Mus musculus albino (mouse) assessed as inhibition of formalin-induced paw swelling at 30 mg/kg, po administered 30 min prior formalin challenge measured after 90 min post challenge (reference value: 9.5 +/- 0.04 mm/min). It is filed as functional.
For data set [3], the system named is Mus musculus. Description: Toxicity in Mus musculus albino (mouse) assessed as serum gamma-glutamyl transferase level at 300 mg/kg, po for 10 days (reference value: 4.43 +/- 0.31 U/l). Type of data set: organism-based. Set-up: dose 300 mg/kg, route oral. The settings on record: in vivo, 240 h.
In data set [4] the test system is Mus musculus. Description: Anti-inflammatory activity in Mus musculus albino (mouse) assessed as inhibition of formalin-induced paw swelling at 30 mg/kg, po administered 30 min prior formalin challenge measured after 120 min post challenge (reference value: 9.83 +/- 0.071 mm/min). Type of data set: functional.
Data set [5] relates to Mus musculus. Nature of the data set: Toxicity in ip dosed Mus musculus albino (mouse) assessed as mortality measured per gram body weight. The note with it: in vivo. Type of data set: organism-based.
Data set [6] relates to Mus musculus. Nature of the data set: Toxicity in Mus musculus albino (mouse) assessed as bluish skin at 80 to 375 mg/kg, ip. It is filed as organism-based. Details: dose 80-375 mg/kg, route intraperitoneal. The settings on record: in vivo.
The test system of data set [7] is Mus musculus. Nature of the data set: Toxicity in Mus musculus albino (mouse) assessed as general depression at 80 to 375 mg/kg, ip. It is filed as organism-based. The note with it: in vivo. Details: dose 80-375 mg/kg, route intraperitoneal.
In data set [8] the test system is Mus musculus. Description: Toxicity in Mus musculus albino (mouse) assessed as GPx activity per gram of Hb at 300 mg/kg, po for 10 days (Rvb =179.16 +/- 10.45 U/g Hb). It is filed as organism-based. Details: dose 300 mg/kg, route oral. The settings on record: in vivo, 240 h.
Data set [9] concerns Mus musculus. Nature of the data set: Toxicity in Mus musculus albino (mouse) assessed as serum LDH level at 300 mg/kg, po for 10 days (reference value: 217.84 +/- 13.36 U/l). Type of data set: organism-based. The note with it: in vivo, 240 h. Details: dose 300 mg/kg, route oral.
In data set [10] the test system is Mus musculus. Nature of the data set: Toxicity in Mus musculus albino (mouse) assessed as rapid respiration at 80 to 375 mg/kg, ip. It is filed as organism-based. Set-up: dose 80-375 mg/kg, route intraperitoneal. The settings on record: in vivo.
Data set [11] has as its system Mus musculus. Description: Toxicity in Mus musculus albino (mouse) assessed as serum ALP level at 300 mg/kg, po for 10 days (reference value: 31.63 +/- 3.73 U/l). Type of data set: organism-based. Details: dose 300 mg/kg, route oral. The settings on record: in vivo, 240 h.
Data set [12] relates to Mus musculus. Nature of the data set: Anti-inflammatory activity in Mus musculus albino (mouse) assessed as inhibition of formalin-induced paw swelling at 30 mg/kg, po administered 30 min prior formalin challenge measured after 60 min post challenge (reference value: 9.73 +/- 0.06 mm/min). Type of data set: functional.
The subject of data set [13] is Mus musculus. Nature of the data set: Toxicity in Mus musculus albino (mouse) assessed as GSH activity at 300 mg/kg, po for 10 days (reference value: 59.57 +/- 5.10 %). Type of data set: organism-based. Set-up: dose 300 mg/kg, route oral. The note with it: in vivo, 240 h.
The test system of data set [14] is Mus musculus. Description: Toxicity in Mus musculus albino (mouse) assessed as serum TBARS level at 300 mg/kg, po for 10 days (reference value: 4.35 +/- 0.86 U/l). It is filed as organism-based. Details: dose 300 mg/kg, route oral. The settings on record: in vivo, 240 h.
For data set [15], the system named is Mus musculus. Nature of the data set: Toxicity in Mus musculus albino (mouse) assessed as serum SGOT level at 300 mg/kg, po for 10 days (reference value: 9.74 +/- 1.73 U/l). Type of data set: organism-based. Set-up: dose 300 mg/kg, route oral. The note with it: in vivo, 240 h.
The subject of data set [16] is Mus musculus. Description: Toxicity in Mus musculus albino (mouse) assessed as SOD activity per gram of Hb at 300 mg/kg, po for 10 days (reference value: 12.7+/- 2.08 U/g Hb). The note with it: in vivo, 240 h. Type of data set: organism-based. Details: dose 300 mg/kg, route oral.
In data set [17] the test system is Mus musculus. Description: Toxicity in Mus musculus albino (mouse) assessed as brownish eye mucus at 80 to 375 mg/kg, ip. Set-up: dose 80-375 mg/kg, route intraperitoneal. It is filed as organism-based. The settings on record: in vivo.
Data set [18] relates to Mus musculus. Description: Anti-inflammatory activity in Mus musculus albino (mouse) assessed as inhibition of formalin-induced paw swelling at 30 mg/kg, po administered 30 min prior formalin challenge measured after 30 min post challenge (reference value: 9.46 +/- 0.035 mm/min). Type of data set: functional.
For data set [19], the system named is Mus musculus. Description: Toxicity in Mus musculus albino (mouse) assessed as increase in heart rate at 80 to 375 mg/kg, ip. It is filed as organism-based. Set-up: dose 80-375 mg/kg, route intraperitoneal. The note with it: in vivo.
The test system of data set [20] is Mus musculus. Description: Toxicity in Mus musculus albino (mouse) assessed as serum SGPT level at 300 mg/kg, po for 10 days (reference value: 35.82 +/- 5.26 U/l). Type of data set: organism-based. The settings on record: in vivo, 240 h. Details: dose 300 mg/kg, route oral.
In data set [21] the test system is Mus musculus. Description: Toxicity in Mus musculus albino (mouse) assessed as tremor inhind limbs at 80 to 375 mg/kg, ip. Type of data set: organism-based, Limb. Set-up: dose 80-375 mg/kg, route intraperitoneal. The settings on record: in vivo.
The subject of data set [22] is Mus musculus. Description: Toxicity in Mus musculus albino (mouse) assessed as serum SGPT level at 600 mg/kg, po for 10 days (reference value: 35.82 +/- 5.26 U/l). Set-up: dose 600 mg/kg, route oral. The settings on record: in vivo, 240 h. Type of data set: organism-based.
Data set [23] relates to Mus musculus. Nature of the data set: Toxicity in Mus musculus albino (mouse) assessed as GSH activity at 600 mg/kg, po for 10 days (reference value: 59.57 +/- 5.10 %). The settings on record: in vivo, 240 h. Details: dose 600 mg/kg, route oral. Type of data set: organism-based.
Data set [24] has as its system Mus musculus. Description: Toxicity in Mus musculus albino (mouse) assessed as serum SGOT level at 600 mg/kg, po for 10 days (reference value: 9.74 +/- 1.73 U/l). Type of data set: organism-based. Details: dose 600 mg/kg, route oral. The settings on record: in vivo, 240 h.
In data set [25] the test system is Mus musculus. Description: Toxicity in Mus musculus albino (mouse) assessed as serum gamma-glutamyl transferase level at 600 mg/kg, po for 10 days (reference value: 4.43 +/- 0.31 U/l). Type of data set: organism-based. Set-up: dose 600 mg/kg, route oral. The note with it: in vivo, 240 h.
Data set [26] concerns Mus musculus. Nature of the data set: Toxicity in Mus musculus albino (mouse) assessed as serum ALP level at 600 mg/kg, po for 10 days (reference value: 31.63 +/- 3.73 U/l). Type of data set: organism-based. Set-up: dose 600 mg/kg, route oral. The settings on record: in vivo, 240 h.
In data set [27] the test system is Mus musculus. Nature of the data set: Toxicity in Mus musculus albino (mouse) assessed as serum LDH level at 600 mg/kg, po for 10 days (reference value: 217.84 +/- 13.36 U/l). The settings on record: in vivo, 240 h. It is filed as organism-based. Set-up: dose 600 mg/kg, route oral.
The subject of data set [28] is Mus musculus. Description: Toxicity in Mus musculus albino (mouse) assessed as serum TBARS level at 600 mg/kg, po for 10 days (reference value: 4.35 +/- 0.86 U/l). The note with it: in vivo, 240 h. Type of data set: organism-based. Set-up: dose 600 mg/kg, route oral.
For data set [29], the system named is Mus musculus. Description: Anti-inflammatory activity in Mus musculus albino (mouse) assessed as inhibition of formalin-induced paw swelling at 60 mg/kg, po administered 30 min prior formalin challenge measured after 60 min post challenge (reference value: 9.73 +/- 0.06 mm/min). It is filed as functional.
Data set [30] concerns Mus musculus. Nature of the data set: Anti-inflammatory activity in Mus musculus albino (mouse) assessed as inhibition of formalin-induced paw swelling at 60 mg/kg, po administered 30 min prior formalin challenge measured after 90 min post challenge (reference value: 9.5 +/- 0.04 mm/min). Type of data set: functional.
The test system of data set [31] is Mus musculus. Description: Toxicity in Mus musculus albino (mouse) assessed as GPx activity per gram of Hb at 600 mg/kg, po for 10 days (Rvb =179.16 +/- 10.45 U/g Hb). It is filed as organism-based. Details: dose 600 mg/kg, route oral. The note with it: in vivo, 240 h.
For data set [32], the system named is Mus musculus. Nature of the data set: Anti-inflammatory activity in Mus musculus albino (mouse) assessed as inhibition of formalin-induced paw swelling at 60 mg/kg, po administered 30 min prior formalin challenge measured after 120 min post challenge (reference value: 9.83 +/- 0.071 mm/min). It is filed as functional.
In data set [33] the test system is Mus musculus. Description: Anti-inflammatory activity in Mus musculus albino (mouse) assessed as inhibition of formalin-induced paw swelling at 60 mg/kg, po administered 30 min prior formalin challenge measured after 30 min post challenge (reference value: 9.46 +/- 0.035 mm/min). Type of data set: functional.
In data set [34] the test system is Mus musculus. Nature of the data set: Toxicity in Mus musculus albino (mouse) assessed as SOD activity per gram of Hb at 600 mg/kg, po for 10 days (reference value: 12.7 +/- 2.08 U/g Hb). Type of data set: organism-based. Set-up: dose 600 mg/kg, route oral. The settings on record: in vivo, 240 h.

Regarding `COc1ccccc1/C=N/n1c(Nc2ccc(S(N)(=O)=O)cc2)nc2ccccc2c1=O`, the Activity entry with Mus musculus [1] is recorded as “Toxic”; in the data set with Mus musculus [2], 7.19 millimeter/min; in the data set on Mus musculus [3], 4.12 U/L; in the data set with Mus musculus [4], 6.5 millimeter/min; in the data set on Mus musculus [5], 222.25 millimeter/min; with Mus musculus [6], “Toxic”. Also, the Activity result in the data set with Mus musculus [7] was “Toxic”; in the data set on Mus musculus [8], 183 U/g Hb; in the data set on Mus musculus [9], 205.65 U/L; in the data set with Mus musculus [10], “Toxic”; with Mus musculus [11], 30.01 U/L; in the data set on Mus musculus [12], 7.78 millimeter/min. Also, the Activity was 61.45% in the data set on Mus musculus [13]; 3.97 nmol/mL with Mus musculus [14]; 10.7 U/L with Mus musculus [15]; 13.1 U/g Hb in the data set with Mus musculus [16]; “Toxic” with Mus musculus [17]; 7.76 millimeter/min in the data set on Mus musculus [18]. The figures for the Activity entry in the data set with Mus musculus [19], with Mus musculus [20] and in the data set on Mus musculus [21] were “Toxic”, 33.65 U/L and “Toxic”, respectively.
For the compound `COc1ccc2c(c1)c(CC(=O)O)c(C)n2C(=O)c1ccc(Cl)cc1` [INDOMETHACIN], the Activity with Mus musculus [22] stood at 65.37 U/L; in the data set on Mus musculus [23], 45.32%; with Mus musculus [24], 24.51 U/L; in the data set with Mus musculus [25], 9.45 U/L; with Mus musculus [26], 76.41 U/L; in the data set with Mus musculus [27] it was 326.8 U/L. Moreover, the Activity with Mus musculus [28] is 7.45 nmol/mL; in the data set with Mus musculus [29], 7.19 millimeter/min; with Mus musculus [30], 7.2 millimeter/min; with Mus musculus [31], 134 U/g Hb; in the data set with Mus musculus [32], 6.98 millimeter/min; in the data set with Mus musculus [33], 6.5 millimeter/min. The Activity in the data set with Mus musculus [34] turned out to be 7.45 U/g Hb.
